Bounds are passed on as bounds.

Series [1] is described as follows: In vivo toxicity studies in mice (NIH/NIAID preclinical service). The protocol: A control group was treated with PBS. […] No signs of distress or significant weight loss were observed during the 4 days of treatment. […]
B. In vivo toxicity studies in mice for bPEI 600 and DAB-Am-4. Experiments were conducted through NIAID/NIH preclinical service agreement No HHSN272201700017I/ […]
Procedures and Endpoints:
1- Baseline weights of all mice
2- IP treatment (twice a day, for 4 days)
3- Daily assessment of weights and condition
4- All animals sacrificed the following morning after the last evening treatment 5- Blood samples collected by IC stick for lab tests (liver, spleen and blood profiles) 6- Internal organs examined for signs of gross tissue toxicity
1. Toxicity evaluation of bPEI 600 Da in mice.
A toxicity screen was performed in uninfected mice treated with 3 doses of bPEI 600 Da, administered for 4 days. In this study, 3 doses of 5, 10 and 25 mg/kg/day were administered twice daily IP for 4 days (n=4/group). A control group was treated with the vehicle (PBS). The mice were examined daily and the weights and general condition were recorded daily. To examine liver, renal and blood function parameters, blood samples were obtained by intracardiac puncture at the end of the study (the following day after last dose) and the mice were sacrificed to examine the internal organs for signs of gross tissue toxicity.
The weights were recorded
In order to confirm the results of the lab results obtained in the toxicity study, a second group of slightly larger mice were treated with the high and the low doses of bPEI 600 Da (25 mg/kg and 5 mg/kg, n=6/group) and the vehicle control (PBS, n=4) for 4 days. Blood samples were collected at the end of the study for liver and renal chemistry profiles. The results are shown in the next […]
REN AL PBS 5 mg/kg 25 mg/kg
LIVER PBS 5 mg/kg 25 mg/kg
Al b:Gl ob R a ti o 1 1 1 […]
obtained from the second group of mice treated with bPEI 600 Da for 4 days.
No signs of distress or significant weight loss were ere observed during the […]
show significant differences with the results obtained in the PBS treated group of control mice.
Statistical analysis: Means were compared by Student’s t test, and mortality was compared by Fisher’s exact test, where applicable.
Ethics regulation of Laboratory animals: Animals were housed in facilities approved by the Association for Assessment and Accreditation of Laboratory Animal Care and Use Committee
2. Toxicity evaluation of DAB-Am-4 in mice.
A toxicity screen in uninfected mice was performed. 2 doses of 5 and 25 mg/kg/day were administered twice daily IP for 4 days (n=6/group). A control group was treated with the vehicle […]
The mice were examined daily and the weights and general condition were recorded. […]

The test system of series [2] is HSV-1. As to the kind of experiment: In vitro HSV-1 replication (plaque reduction) assay, EC50 and SI50 estimates. In kind it is cell-based. Details: unit not given beside the values. The settings on record: HFF cells infected with HSV-1.
Where [3] appears, read: mice, 5 mg/kg/day twice daily IP, 4 days, Mean, CBC (n=1-2).
The mark [4] stands for this setting: mice, 5 mg/kg/day twice daily IP, 4 days, Mean, LIVER (n=5).
[5] abbreviates: mice, 5 mg/kg/day twice daily IP, 4 days, Mean, RENAL (n=5).

Consider `NCCCN(CCCN)CCCN(CCCCN(CCCN(CCCN)CCCN)CCCN(CCCN)CCCN)CCCN(CCCN)CCCN` [DAB-Am-8], for which, in series [1] (mice, 5 and 25 mg/kg/day DAB-Am-4, 5 mg/kg/day DAB-Am-8), the “signs of acute toxicity (lab tests)” value is “no conclusive signs of acute toxicity”. Further, the “signs of distress during the observation period” value in series [1] (mice, low dose 5 mg/kg/day) was “no significant signs”. Further, in series [1] (setting [3]), the “%Lymphocyte” value stood at 75%, the Hematocrit was determined as 42 and the WBC came to 6. In series [1] (setting [4]), the AST is listed as 437, the “Alb:Glob Ratio” value is 2, the Albumin is recorded as 3 and the Amylase was determined as 730. Besides, in series [1] (setting [4]), the “Bile Acids” value worked out at 238, the Cholesterol is 61, the “Creatine Kinase” value was 3149 and the GGT is on record as less than 1. In series [1] (setting [4]), the Globin came to 2, the “Total Protein” value is recorded as 4 and the Triglyceride was determined as 114. Also, in series [1] (setting [5]), the BUN was 22, the “Ca:Phos Ratio” value amounted to 1, the Calcium amounted to 8 and the Chloride was 111. Besides, in series [1] (setting [5]), the Glucose came to 204, the K is given as 7, the Na amounted to 147 and the “Na:K Ratio” value was determined as 22. In series [1] (setting [5]), the Phosphorus is recorded as 9 and the “Uric Acid” value was determined as 2. Also, in series [1] (mouse, in vivo, 25 mg/kg/day), the toxicity entry is “displayed toxicity”.
With `Nc1nc2c(ncn2COCCO)c(=O)[nH]1` [Acyclovir], in series [2], the SI50 was ~ 10^2.

These data come from publication PMC7377361, “Pressurized DNA state inside herpes capsids—A novel antiviral target” (PLoS Pathogens, 2020).
